Laboratory results published in patent publication US12612412B2, “Antiviral heterocyclic compounds” (Enanta Pharmaceuticals, Inc., priority 2021, dated 2026).
Read-outs that look alike come from different tables or passages of the source.

Tests used:
[1] = tested on: genotype A, "Long" strain RSV; experiment: RSV-A assay (CPE protection in Hep-2 cells, ATPlite readout); type: cell-based, Human respiratory syncytial virus (HRSV); settings: human respiratory syncytial virus, MOI 0.1, CPE protection
In short: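 In this cytopathic-effect protection format, infected Hep-2 cultures (MOI 0.1) are exposed to compound for 5 days. Surviving cell ATP is quantified with ATPlite, and EC50 is determined.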

[2] = tested on: HMPV clinical isolate TN/1501/A1; experiment: HMPV antiviral assay Method-B (clinical isolate TN/1501/A1 in LLC-MK2 cells, ATP-Lite readout); type: cell-based, Human metapneumovirus (HMPV); settings: human metapneumovirus, LLC-MK2, 144 h, hMPV WT1501 (clinical isolate TN/1501/A1), 6 days
In short: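 LLC-MK2 cells infected in suspension with TN/1501/A1 at MOI 0.014 in serum-free medium with 2 μg/mL TPCK-trypsin (final), incubated 6 days at 37° C. Compounds tested in duplicate, 10-point 3-fold dilutions from 10 μM. Cell health read by ATP-Lite luminescence, normalised to virus-only and cells-only controls; EC50 by four-parameter logistic fit.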

[3] = genotype A “Long” strain RSV, read-out: Human RSV-A (“Long”)
[4] = RSV-A Long strain, read-out: Human RSV-A (“Long”) EC50

Row | Compound | EC50 [1, 3] [nM] | EC50 [2] [nM] | EC50 [1, 4] [nM]
1 | COc1cc(C(=O)NC[C@](O)(c2cc3c(c(-c4cc(F)c(F)c(Cl)c4)n2)OC[C@]3(C)C(N)=O)C(F)(F)F)cc2cc(Cl)c(C)nc12 [Example 784] | < 200 | < 500 | –
2 | COc1cc(C(=O)NC[C@](O)(c2cc3c(c(-c4cc(F)c(F)c(Cl)c4)n2)OC[C@]3(C)C(N)=O)C(F)(F)F)cc2cc(Br)cnc12 [Example 785] | < 200 | < 500 | –
3 | COc1cc(C(=O)NC[C@](O)(c2cc3c(c(-c4cc(F)c(F)c(Cl)c4)n2)OC[C@]3(C)C(N)=O)C2CC2)cc2cc(Cl)c(C)nc12 [Example 786] | < 200 | < 500 | –
4 | C[C@]1(C(N)=O)COc2c1cc([C@@](O)(CNC(=O)c1cc(Cl)c3nn(C4CC4)cc3c1)C1CC1)nc2-c1cc(F)c(F)c(Cl)c1 [Example 790] | < 200 | < 500 | –
5 | Cc1cnc2c(Cl)cc(C(=O)NC[C@](O)(c3cc4c(c(-c5cc(F)c(F)c(Cl)c5)n3)OC[C@]4(C)C(N)=O)C3CC3)cc2c1 [Example 792] | < 200 | < 500 | –
6 | C[C@]1(C(N)=O)COc2c1cc([C@@](O)(CNC(=O)c1cc(Cl)c3nn(C4CC4)cc3c1)C1CC1)nc2-c1ccc(F)c(Br)c1F [Example 800] | < 200 | < 500 | –
7 | COc1cc(C(=O)NC[C@](O)(c2cc3c(c(-c4ccc5c(c4)OC(F)(F)O5)n2)OC[C@]3(C)C(N)=O)C(F)(F)F)ccc1OC1CC1 [Example 817] | < 200 | < 500 | –
8 | C[C@@H](O)COc1ccc(C(=O)NC[C@](O)(c2cc3c(c(-c4ccc5c(c4)OC(F)(F)O5)n2)OC[C@]3(C)C(N)=O)C(F)(F)F)cc1OC1CC1 [Example 818] | < 200 | < 500 | –
9 | C[C@]1(C(N)=O)COc2c1cc([C@@](O)(CNC(=O)c1ccc3nn(C4CC4)cc3c1)C(F)(F)F)nc2-c1ccc2c(c1)OC(F)(F)O2 [Example 819] | < 200 | < 500 | –
10 | C[C@]1(C(N)=O)COc2c1cc([C@@](O)(CNC(=O)c1cc(OC3CC3)n3nc(C4CC4)cc3c1)C1CC1)nc2-c1ccc2c(c1)OC(F)(F)O2 [Example 822] | < 200 | < 500 | –
11 | C[C@]1(C(N)=O)COc2c1cc([C@@](O)(CNC(=O)c1ccn3nc(C4CC4)cc3c1)C1CC1)nc2-c1ccc2c(c1)OC(F)(F)O2 [Example 824] | < 200 | < 500 | –
12 | COc1cc(C(=O)NC[C@](O)(c2cc3c(c(-c4ccc5c(c4)OC(F)(F)O5)n2)OC[C@]3(C)C(N)=O)C2CC2)cc2cc(C3CC3)nn12 [Example 826] | < 200 | < 500 | –
13 | C[C@]1(C(N)=O)COc2c1cc([C@@](O)(CNC(=O)c1cc(F)c3nc(N)sc3c1)C1CC1)nc2-c1ccc2c(c1)OC(F)(F)O2 [Example 827] | – | < 500 | < 200
14 | COc1cc(C(=O)NC[C@](O)(c2cc3c(c(-c4ccc5c(c4)OC(F)(F)O5)n2)OC[C@]3(C)C(N)=O)C2CC2)cn2cc(C3CC3)nc12 [Example 828] | – | < 500 | < 200
15 | C[C@@H](O)COc1ccc(C(=O)NC[C@](O)(c2cc3c(c(-c4ccc5c(c4)OC(F)(F)O5)n2)OC[C@]3(C)C(N)=O)C2CC2)cc1OC1CC1 [Example 829] | – | > 500 | < 200

Further lines, results first:

Row | EC50 [1, 3] [nM] | EC50 [2] [nM] | EC50 [1, 4] [nM] | Compound
16 | < 200 | < 500 | – | COc1cc(C(=O)NC[C@](O)(c2cc3c(c(-c4cc(F)c(F)c(Cl)c4)n2)OC[C@]3(C)C(N)=O)C2CC2)cc2cn(C3CC3)nc12 [Example 787]
17 | < 200 | < 500 | – | COc1cc(C(=O)NC[C@](O)(c2cc3c(c(-c4cc(F)c(F)c(Cl)c4)n2)OC[C@]3(C)C(N)=O)C2CC2)cc2cn(C(F)F)nc12 [Example 788]
18 | < 200 | < 500 | – | COc1cc(C(=O)NC[C@](O)(c2cc3c(c(-c4cc(F)c(F)c(Cl)c4)n2)OC[C@]3(C)C(N)=O)C2CC2)cc2cc(Br)cnc12 [Example 789]
19 | < 200 | < 500 | – | COc1cc(C(=O)NC[C@](O)(c2cc3c(c(-c4cc(F)c(F)c(Cl)c4)n2)OC[C@]3(C)C(N)=O)C2CC2)cc2cn(C3(F)CC3)nc12 [Example 791]
20 | < 200 | < 500 | – | COc1cc(C(=O)NC[C@](O)(c2cc3c(c(-c4ccc(C(F)(F)F)cc4)n2)OC[C@]3(C)C(N)=O)C2CC2)cc2cn(C3CC3)nc12 [Example 793]
21 | < 200 | < 500 | – | COc1cc(C(=O)NC[C@](O)(c2cc3c(c(-c4ccc(C(F)(F)F)cc4)n2)OC[C@]3(C)C(N)=O)C2CC2)cc2cn(C3(F)CC3)nc12 [Example 794]
22 | < 200 | > 500 | – | C[C@]1(C(N)=O)COc2c1cc([C@@](O)(CNC(=O)c1cc(Cl)c3nn(C4CC4)cc3c1)C1CC1)nc2-c1ccc(C(F)(F)F)cc1 [Example 795]
23 | < 200 | < 500 | – | COc1cc(C(=O)NC[C@](O)(c2cc3c(c(-c4ccc(C(F)(F)F)cc4)n2)OC[C@]3(C)C(N)=O)C2CC2)cc2cn(C(F)F)nc12 [Example 796]
24 | < 200 | < 500 | – | Cc1cnc2c(Cl)cc(C(=O)NC[C@](O)(c3cc4c(c(-c5ccc(C(F)(F)F)cc5)n3)OC[C@]4(C)C(N)=O)C3CC3)cc2c1 [Example 798]
25 | < 200 | < 500 | – | COc1cc(C(=O)NC[C@](O)(c2cc3c(c(-c4ccc(F)c(Br)c4F)n2)OC[C@]3(C)C(N)=O)C2CC2)cc2cn(C3CC3)nc12 [Example 799]
26 | < 200 | < 500 | – | COc1cc(C(=O)NC[C@](O)(c2cc3c(c(-c4ccc(F)c(Br)c4F)n2)OC[C@]3(C)C(N)=O)C2CC2)cc2cn(C(F)F)nc12 [Example 801]
27 | < 200 | < 500 | – | COc1cc(C(=O)NC[C@](O)(c2cc3c(c(-c4ccc(F)c(Br)c4F)n2)OC[C@]3(C)C(N)=O)C2CC2)cc2cn(C3(F)CC3)nc12 [Example 802]
28 | < 200 | < 500 | – | COc1cc(C(=O)NC[C@](O)(c2cc3c(c(-c4ccc(F)c(Cl)c4)n2)OC[C@]3(C)C(N)=O)C2CC2)ccc1OC1CC1 [Example 811]
29 | < 200 | < 500 | – | C[C@]1(C(N)=O)COc2c1cc([C@@](O)(CNC(=O)c1ccc3nn(C4CC4)cc3c1)C1CC1)nc2-c1ccc(F)c(Cl)c1 [Example 815]
30 | < 200 | < 500 | – | COc1cc(C(=O)NC[C@](O)(c2cc3c(c(-c4ccc5c(c4)OC(F)(F)O5)n2)OC[C@]3(C)C(N)=O)C2CC2)cc2cn(C3CC3)nc12 [Example 816]
31 | < 200 | < 500 | – | COc1cc(C(=O)NC[C@](O)(c2cc3c(c(-c4ccc(F)cc4)n2)OC[C@]3(C)C(N)=O)C(F)(F)F)cc2cn(C3(F)CC3)nc12 [Example 820]
32 | < 200 | > 500 | – | COc1cc(C(=O)NC[C@](O)(c2cc3c(c(-c4ccc(F)cc4)n2)OC[C@]3(C)C(N)=O)C(F)(F)F)cc2cn(C3(O)CC3)nc12 [Example 821]
33 | < 200 | < 500 | – | COc1cc(C(=O)NC[C@](O)(c2cc3c(c(-c4ccc5c(c4)OC(F)(F)O5)n2)OC[C@]3(C)C(N)=O)C2CC2)cc2cn(C(F)F)nc12 [Example 823]
34 | < 200 | < 500 | – | COc1cc(C(=O)NC[C@](O)(c2cc3c(c(-c4ccc5c(c4)OC(F)(F)O5)n2)OC[C@]3(C)C(N)=O)C2CC2)cc2cc(Cl)c(C)nc12 [Example 825]
35 | – | < 500 | < 200 | COc1cc(C(=O)NC[C@](O)(c2cc3c(c(-c4ccc5c(c4)OC(F)(F)O5)n2)OC[C@]3(C)C(N)=O)C2CC2)ccc1OC1CC1 [Example 830]
